# Laboratory results taken from patent US4439614A, “5,6-Methano-5,6-dihydroretinoids” (SRI International, priority 1982, dated 1984).
# Columns and labels:
# Ornithine Decarboxylase [1] = settings: prior-art epoxides; ODC induction in mouse epidermis by tumor-promoting phorbol esters; cited from earlier work
# [2] = test system: Hamster Tracheal Organ Culture; assay: Reversal of keratinization in hamster tracheal organ culture; assay type: cell-based
# Method: (§1) The ODC assay measures a compound's effect on the prevention of the induction of ODC. The tracheal organ culture assay measures a compound's ability to reverse keratinization. For comparison purposes retinoic acid was also tested by these assays.
# The tracheal organ culture assay is carried out as follows. Tracheas are taken from hamsters that are in very early stages of vitamin A deficiency and placed in organ culture. At the time of culture, the animals are still gaining weight; the tracheal epithelium is generally low columnar or cuboidal, with only occasional patches of squamous metaplasia. […] All tracheas are grown in medium containing no retinoid for the first 3 days. […] Culture medium is changed three times a week, and all of the remaining tracheas are harvested at the end of 10 days in culture. Tracheas are fixed in 10% buffered formalin and embedded in paraffin.
# Ornithine Decarboxylase [3] = assay: Inhibition of induction of ornithine decarboxylase (ODC assay) by 12-O-tetradecanoylphorbol-13-acetate in mouse skin; assay type: in vivo; settings: topical, 1 hour before TPA (17 nmol), CD-1 mice
# Method: as §1
# The ODC assay is carried out as follows. Female Charles River CD-1 mice from Charles River Breeding Laboratories, Wilmington, Mass., are used (age 7 to 9 weeks). The dorsal hair of the mice is shaved 1 to 2 days before testing, and only mice showing no hair regrowth are used. […] The mice are killed by cervical dislocation five hours after TPA treatment. Determinations are done in triplicate.
# The epidermis is obtained from the sacrificed animals. To obtain sufficient material, the dorsal skins from 2 to 3 mice in each treatment group are pooled. The depilatory agent Nudit® (Helena Rubinstein, New York) is applied to the shaved area of the skin; after 5 minutes, it is washed off thoroughly with cold tap water. Then the skin is excised and plunged immediately into ice-cold water; it is then placed in a 55° C. water bath for 30 seconds and reimmersed in ice-cold water for at least another 30 seconds.
# The supernatant fraction remaining after centrifugation of the homogenate at 10,000×g for 30 seconds at 0° C. is used for the enzyme assay. Enzyme activity is determined using the microassay for ODC as described by Verma and Boutwell to measure the release of ^14 CO2 from DL-[1-^14 C]-ornithine (58 mCi/mmol) after incubation with the 10,000×g supernatant. The incubations are carried out by decanting, with a Pasteur pipette, 100 μL of the supernatant containing 100 to 120 μg of protein into two or three 15-mL Corex tubes in a shaking water bath at 37° C.
smiles,measurement,setting,value
"CC(/C=C/C12OC1(C)CCCC2(C)C)=C\C=C\C(C)=C\C(=O)O (stereo not drawn) [5,6-epoxy-5,6-dihydroretinoic acid]",biological activity in the ornithine decarboxylase (ODC) assay,Ornithine Decarboxylase [1],exhibited biological activity
"CCOC(=O)c1ccc(/C=C(\C)C=CC23OC2(C)CCCC3(C)C)cc1 (stereo not drawn) [(E)-1-(4-carbethoxy)-2-methyl-4-(1,2-epoxy-2,6,6,-trimethylcyclohex-1-yl)-1,3-butadiene]",biological activity in the ornithine decarboxylase (ODC) assay,Ornithine Decarboxylase [1],exhibited biological activity
"CCOC(=O)c1ccc(/C=C(C)/C=C/C23CC2(C)CCCC3(C)C)cc1 (stereo not drawn) [(E)-1-(4-carbethoxyphenyl)-2-methyl-4-(2,2,6-trimethylbicyclo[4.1.0]hept-1-yl)-1,3-butadiene]",Active Cultures (%) (reversal of keratinization),[2]; conc 10^-8 M,100%
same,Active/Total Cultures (reversal of keratinization),[2]; conc 10^-8 M,7/7
same,Active Cultures (%) (reversal of keratinization),[2]; conc 10^-9 M,77%
same,Active/Total Cultures (reversal of keratinization),[2]; conc 10^-9 M,10/13
same,Active Cultures (%) (reversal of keratinization),[2]; conc 10^-10 M,29%
same,Active/Total Cultures (reversal of keratinization),[2]; conc 10^-10 M,4/14
same,Active Cultures (%) (reversal of keratinization),[2]; conc 10^-11 M,29%
same,Active/Total Cultures (reversal of keratinization),[2]; conc 10^-11 M,2/7
same,% Inhibition of Control (inhibition of induction of ornithine decarboxylase by TPA in mouse skin),Ornithine Decarboxylase [3]; dose 17 nmol,80%
"CC1=C(/C=C/C(C)=C/C=C/C(C)=C/C(=O)O)C(C)(C)CCC1 [(E)-retinoic acid, reference compound]",Active Cultures (%) (reversal of keratinization),[2]; conc 10^-8 M,100%
same,Active/Total Cultures (reversal of keratinization),[2]; conc 10^-8 M,236/236
same,Active Cultures (%) (reversal of keratinization),[2]; conc 10^-9 M,88%
same,Active/Total Cultures (reversal of keratinization),[2]; conc 10^-9 M,419/474
same,Active Cultures (%) (reversal of keratinization),[2]; conc 10^-10 M,52%
same,Active/Total Cultures (reversal of keratinization),[2]; conc 10^-10 M,134/256
same,% Inhibition of Control (inhibition of induction of ornithine decarboxylase by TPA in mouse skin),Ornithine Decarboxylase [3]; dose 1.7 nmol,87-91%
"CCOC(=O)/C=C(C)/C=C/C=C(C)/C=C/C12CC1(C)CCCC2(C)C (stereo not drawn) [ethyl (E)-5,6-methano-5,6-dihydroretinoate]",Active Cultures (%) (reversal of keratinization),[2]; conc 10^-8 M,100%
same,Active/Total Cultures (reversal of keratinization),[2]; conc 10^-8 M,7/7
same,Active Cultures (%) (reversal of keratinization),[2]; conc 10^-9 M,79%
same,Active/Total Cultures (reversal of keratinization),[2]; conc 10^-9 M,11/14
same,Active Cultures (%) (reversal of keratinization),[2]; conc 10^-10 M,50%
same,Active/Total Cultures (reversal of keratinization),[2]; conc 10^-10 M,7/14
same,Active Cultures (%) (reversal of keratinization),[2]; conc 10^-11 M,29%
same,Active/Total Cultures (reversal of keratinization),[2]; conc 10^-11 M,2/7
same,% Inhibition of Control (inhibition of induction of ornithine decarboxylase by TPA in mouse skin),Ornithine Decarboxylase [3]; dose 17 nmol,70%
